Test results taken from article PMC10897151, “Nature-inspired peptide of MtDef4 C-terminus tail enables protein delivery in mammalian cells” (Scientific Reports, 2024).
Peptide text beside a SMILES is read from it.

What was measured:
HeLa cells [1] = experiment: Confocal microscopy imaging of cellular penetration; assay type: cell-based
Experimental: To this end, we explored the internalization kinetics of FITC-GMA4C into the cells. At the outset, we performed a dose–response investigation using a twofold dilution, identifying optimal conditions at 6uM for peptide visualization (Figs. 2 and 3). Subsequently, HeLa cells were cultured with 6 µM FITC-GMA4C and imaged at different time points.
Figure 4 Time response of FITC-GMA4C uptake into HeLa cells. (A) Cells were cultured with 6 µM of FITC-GMA4C at 37 °C, followed by PBS washing and subsequent fixation with 4% PFA and post-fixation staining with DAPI. Images of cells were taken by confocal microscopy visualizing FITC-GMA4C (green) and DAPI (Blue). Scale bar: 100 µm. (B) Quantification of FITC-GMA4C fluorescence intensity. Bars show the mean green fluorescence intensity relative to non-treated cells and normalized to the number of cells. Values were measured using the Color Threshold tab in Fiji. […]
Given the remarkable rate and efficiency of the free peptide cellular penetration, we further investigated its capacity to enhance the delivery of large biomolecules into cells. For that purpose, we evaluated the cellular permeabilization of recombinant GFP, expressed and purified with an N- or C-terminus fusion of GMA4C: GFP, GMA4C-GFP and GFP-GMA4C, respectively (Fig. S1). […] Subsequently, we quantified the cellular uptake of the exogenous proteins using flow cytometry analysis. […]

HeLa cells [2] = experiment: Flow cytometry analysis of cellular uptake; assay type: cell-based; details: free FITC 25 µM, 2 h, trypsin treated
Experimental: To evaluate the capability of GMA4C to penetrate mammalian cells, we synthesized the peptide with a fluorescein isothiocyanate (FITC) fluorescent probe at its N-terminus (FITC-GMA4C). Subsequently, we incubated HeLa cells with varying concentrations of FITC-GMA4C for two hours. After thorough washing, we visualized the cells using confocal microscopy imaging. Remarkably, we observed the accumulation and intracellular localization of FITC-GMA4C within the cells, even at low micromolar concentrations (Figs. 3A,B, and S7A). The entry of FITC-GMA4C is depicted by green dots within the cells, indicating effective peptide transduction. […] To ensure that the detected fluorescence signal originated only from peptides internalized within the cells and not from peptides bound to the cell membrane, we washed the cells and subjected them to trypsin treatment at 37 °C. […]
Figure 3 Characterization of GMA4C penetration into HeLa cells by confocal imaging and flow cytometry analysis. […] (B) Quantification of FITC-GMA4C fluorescence intensity. Bars show the mean green fluorescence intensity relative to non-treated cells and normalized to the number of cells. Values were measured using the Color Threshold tab in Fiji. […] (C) Quantification of FITC-GMA4C peptide uptake by cells. […] (D) Quantitative evaluation of flow cytometry signal intensity. Values were measured using FloJo flow cytometry software. […]

| Molecule | time at which significant uptake is observed (HeLa cells [1]) | time to reach uptake equilibrium (HeLa cells [1]) | accumulation in the cell (HeLa cells [2]) |
| --- | --- | --- | --- |
| C[C@@H](O)[C@H](NC(=O)[C@H](CS)NC(=O)[C@H](Cc1ccccc1)NC(=O)[C@H](CS)NC(=O)[C@H](CCCNC(=N)N)NC(=O)[C@H](CCCNC(=N)N)NC(=O)[C@H](CCCNC(=N)N)NC(=O)[C@H](Cc1ccccc1)NC(=O)CNC(=O)[C@H](CCCNC(=N)N)NC(=O)[C@H](CS)NC(=O)[C@H](CCCNC(=N)N)NC(=O)CN)C(=O)N[C@H](C(=O)N[C@@H](Cc1c[nH]cn1)C(=O)N[C@@H](CS)C(=O)O)[C@@H](C)O [GMA4C] (H-GRCRGFRRRCFCTTHC-OH; N-terminus and C-terminus assumed) | under 15 min | ≤ 30 min | – |
| fluorescein isothiocyanate [free-FITC] | – | – | only slightly accumulated |
